Data on 5 compounds can be found in patent US20220348569A1 (priority 2021, published 2022).

Values joined by “and” are separate entries in the source; they are usually repeats but may differ in a detail not shown here. Equal values may be shown once. Read-outs that look alike come from different tables or passages of the source. Where only a bound is given, the exact number is not on record here.

This assay has as its system SARS-CoV-2 pseudoviruses carrying spike mutations of B.1.1.7 UK, B.1.351 RSA and B.1.617.2 India (Delta) variants. In kind it is cell-based.

`O=C(O)c1cc(-c2ccc(/C=C3\SC(=S)N(CCc4ccccc4)C3=O)o2)ccc1Cl` [Compound 1, (Z)-2-Chloro-5-(5-((4-oxo-3-phenethyl-2-thioxothiazolidin-5-ylidene)methyl)furan-2-yl)benzoic acid]: the “antiviral activity against mutant pseudoviruses (in words)” value (“antiviral activity” below) is listed as “potent antiviral activity against all mutant pseudoviruses”. Besides, the IC50 (read-out: IC50) is 57 nM and 33 nM.

Consider `O=C(O)c1cccc(-c2ccc(/C=C3\SC(=S)N(CCc4ccccc4)C3=O)o2)c1` [Compound 2], for which the “antiviral activity” value is reported as “highly potent inhibitor against all mutant pseudoviruses”. Moreover, under “read-out: IC50 in the range for all the pseudovirus variants”, the IC50 was 35 to 88.7 nM.

For `O=C(O)c1cc(-c2ccc(/C=C3\SC(=S)N(CCc4ccccc4)C3=O)o2)ccc1F` [Compound 3], the “antiviral activity” value is on record as “slightly less efficient against all the pseudoviruses tested”. In addition, the IC50 (read-out: IC50) stood at 232 ± 17 nM.

Turning to `Cc1ccc(-c2ccc(/C=C3\SC(=S)N(CCc4ccccc4)C3=O)o2)cc1C(=O)O` [Compound 4], for the setting “read-out: IC50 against B.1.617.2 Delta single, double and triple mutant variants”, the IC50 lay in the range of 148 to 239 nM.

Consider `Cc1c(C(=O)O)cccc1-c1ccc(/C=C2\SC(=S)N(CCc3ccccc3)C2=O)o1` [Compound 5], for which the “antiviral activity” value is listed as “poor/no activity”. The IC50 (read-out: IC50) is > 2000 nM and 1730 nM and 1850 nM and 1720 nM.
